We go through four compounds from US20070088090A1, “Alpha-bulnesene, its preparation and its use” (Yangsen Biotechnology Co., Ltd., priority 2005, published 2007).

One data set deals with TXB2 formation. Nature of the data set: Thromboxane B2 formation induced by AA in rabbit washed platelets (EIA). In kind it is cell-based. The following applies: AA 100 μM, 6 min. As to the method:
(§1) After challenging platelets with AA (100 μM) for 6 min, 1 mM EDTA and 20 μM indomethacin were added to terminate the reaction. By centrifugation for 5 min at 4° C. and 10,000×g, the TXB2 and PGE2 in the supernatants were assayed using EIA kits according to the procedure described by the manufacturer.

In another data set the test system is PGE2 formation. The data set can be described thus: Prostaglandin E2 formation induced by AA in rabbit washed platelets (EIA). Conditions: AA 100 μM. In kind it is cell-based. As for the experimental part:
as §1

Data set [1] has as its system AA-induced platelet aggregation. The data set can be described thus: AA-induced platelet aggregation in rabbit washed platelets. In kind it is cell-based. Conditions: AA 100 μM.
Protocol: Platelet suspension was prepared as follows. Blood was collected from the marginal ear vein of New Zealand White rabbits. The blood was then anticoagulated with acid citrate dextrose (ACD, 1:6, v/v) and centrifuged for 8 min at 1000×g at room temperature. The upper portion was collected as platelet-rich plasma (PRP) and mixed with EDTA to a final concentration of 5 mM. The platelet pellets were obtained from EDTA-mixed PRP by centrifugation for 12 min at 2000×g. The platelet pellets were suspended with Ca^2+-free Tyrode's solution, and then incubated with apyrase (1 unit mL^−1) for 15 min at 37° C. […] The concentration of platelets was adjusted to 2.5×10^8 platelets mL^−1.
Platelet aggregation was measured turbidimetrically with a light-transmission Platelet Aggregation Chromogenic Kinetic System PACK4 (Helena Laboratories, Beaumont, Tex., USA) with some modifications. […] Aggregation was induced with PAF (5 nM) and AA (100 μM). The absorbance of the Tyrode's solution was taken as 0% aggregation and that of the platelet suspension as 100% aggregation. The extent of platelet aggregation was measured as the maximal increase of light transmission within 4 min after addition of the inducers. When isopropanol was used as the solvent the final concentration was fixed at 0.5% (v/v) to eliminate the effect of the solvent. All glassware was siliconized.
For data set [2], the system named is PAF-induced intracellular Ca2+ release. Nature of the data set: PAF-induced intracellular Ca2+ release in fluo-3-loaded platelets. Format: cell-based, rabbit. Conditions: PAF 5 nM, 2.5-50 μM, read-out: IC50, inhibition of PAF-induced intracellular Ca2+ release. As for the experimental part:
Platelets pelleted from PRP were resuspended in Ca^2+-free Tyrode's solution, and then incubated with fluo-3/AM (2 μM) at 37° C. for 30 min. In order to prevent leakage of dye, probenecid (2.5 mM) was added to the buffers throughout the experiments. After washing, the fluo-3-loaded platelets were finally suspended in Ca^2+-free Tyrode's solution without heparin at a concentration of 1.3×10^8 platelets mL^−1. The fluo-3-loaded platelets were preincubated with α-bulnesene in the presence of extracellular calcium (1 mM) at 37° C. for 2 min prior to addition of PAF. Fluorescence (Ex 505 nm, Em 530 nm) was measured with a fluorescence spectrophotometer (Model F4500; Hitachi, Tokyo, Japan). At the end of the experiment, the cells were treated with digitonin (20%) followed by the addition of EGTA (50 mM) to obtain the maximal and minimal fluorescence, respectively. [Ca^2+]i was calculated as described for fluo-3/AM using the Ca^2+-dye dissociation constant 864 nM.

Another data set deals with rabbit platelets. The data set can be described thus: Cytotoxicity assay in rabbit platelets. Conditions: 12.5-50 μM, 30 min treatment, data not shown. In kind it is cell-based.
The next data set deals with T1, PAF receptor (Oryctolagus cuniculus, UniProt G1TEI7).
T1 construct: from tissue; host or cells: rabbit washed platelets (intact)
T1 sequence (G1TEI7 1-342): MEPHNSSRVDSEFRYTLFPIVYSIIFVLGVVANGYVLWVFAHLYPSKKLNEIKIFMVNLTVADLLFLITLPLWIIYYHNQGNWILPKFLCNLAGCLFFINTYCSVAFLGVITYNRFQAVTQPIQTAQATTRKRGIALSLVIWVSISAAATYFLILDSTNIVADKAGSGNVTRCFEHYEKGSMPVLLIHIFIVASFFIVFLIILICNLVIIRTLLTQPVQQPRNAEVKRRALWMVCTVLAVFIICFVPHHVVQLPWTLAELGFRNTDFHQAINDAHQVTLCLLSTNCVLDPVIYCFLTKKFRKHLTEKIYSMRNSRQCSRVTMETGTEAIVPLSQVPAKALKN
The data set can be described thus: [3H]PAF receptor binding assay using rabbit washed platelets. As for the experimental part: [^3H]PAF receptor binding assay is prepared using rabbit washed platelets. […] The reaction mixture was incubated at 4° C. for 2 hrs and then 5 mL of BSA-containing saline solution was added to terminate the reactions. The free and bound ligands were separated by filtration using a Whtman GF/C glass fiber filters which were presoaked with ice-cold water. The filters were rapidly washed with the same solution and then dried and placed into vials containing 10 mL of the scintillation fluid. Radioactivity was measured in a liquid scintillation counter (Beckman LS3801). The difference between the total radioactivity of bound [^3H]PAF in the absence and in the presence of excess unlabeled PAF is defined as specific binding of the radio-labeled ligand. In a batch of experiments, [^3H]PAF was incubated with different concentrations of PAF receptor antagonists, and the effect of the antagonist on the specific binding was expressed as percentage inhibition of the control.
Percent inhibition (%)=[100−(B/A×100)](%)
wherein A represents percent aggregation in control added and B represents percent aggregation in compound added.

The subject of data set [3] is PAF-induced platelet aggregation. Nature of the data set: PAF-induced platelet aggregation in rabbit washed platelets. In kind it is cell-based. The following applies: PAF 5 nM, read-out: IC50, inhibition of platelet aggregation induced by PAF.
Protocol: Blood samples were collected from the marginal ear artery of New Zealand white rabbits. The blood was then treated to obtained platelet-rich plasma (PRP) mixed with EDTA. The platelet pellet was obtained from the EDTA-anticoagulated PRP by centrifugation. The pellet was then suspended in Tyrode solution and incubated. Platelet numbers were then counted.
The platelet suspension was stirred with solvent of test compound in solvent of different concentrations. Aggregation inducer PAF was then added to trigger the aggregation. Aggregation was determined by the transmission method using a platelet aggregation chromogenic kinetic system. The initial transmittance of the Ca^2+-containing Tyrode solution was taken as 0% aggregation and that of the platelet suspension as 100% aggregation. […] Percent inhibition by a compound was calculated.
Platelet suspension was prepared as follows. […]
Platelet aggregation was measured turbidimetrically with a light-transmission Platelet Aggregation Chromogenic Kinetic System PACK4 (Helena Laboratories, Beaumont, Tex., USA) with some modifications. […] The absorbance of the Tyrode's solution was taken as 0% aggregation and that of the platelet suspension as 100% aggregation. The extent of platelet aggregation was measured as the maximal increase of light transmission within 4 min after addition of the inducers. […]

By inhibition is commonly meant how much of the control response was suppressed. As to `COc1ccc2c(c1)c(CC(=O)O)c(C)n2C(=O)c1ccc(Cl)cc1` [Indomethacin, indomethacin], in the data set on TXB2 formation (Oryctolagus cuniculus, Platelet, 0.1 h, 1 μM, read-out: percent inhibition of TXB2 formation), the inhibition at 1 µM worked out at 98.05 ± 0.16%. Besides, the “PGE2 formation in the presence of AA” value with PGE2 formation (indomethacin, concentration not restated (1 μM as positive control)) was “inhibited”.

What is called IC50 is the midpoint of a concentration-inhibition curve. Turning to `C=C(C)C1CCC(C)=C2CCC(C)C2C1` (stereo not drawn) [α-bulnesene, 1β,4-dimethyl-7β-isopropenyl-1,2,3,5,6,7,8,8aα-octahydroazulene], the IC50 was 42.5 ± 5.97 µM in data set [1] (read-out: IC50, inhibition of platelet aggregation induced by AA); 19.6 ± 1.32 µM in data set [2]; 17.6 ± 5.68 µM on PAF receptor (0.2 nM [3H]PAF, 4° C., 2 hrs); 24.5 ± 2.45 µM in data set [3]. The “TXB2 formation stimulated by AA” value in the data set on TXB2 formation (25-100 μM) is on record as “inhibited”. Also, the “toxicity in rabbit platelets” value in the data set with rabbit platelets is on record as “did not have any toxicity”. Moreover, the “PGE2 formation in the presence of AA” value in the data set with PGE2 formation (25-100 μM, 6 min) is “inhibited”.

Consider `CCCCCCCCCCCCCCCCCCNC(=O)OCC(COP(=O)([O-])OCC[n+]1ccsc1)OC` (centres unmarked) [CV-3988], for which the “inhibition on AA-induced platelet aggregation” value in data set [1] is listed as “no inhibition”. Besides, the “percent inhibition for [3H]PAF binding” value on PAF receptor (10 μM, n=3) was determined as 10.10±1.74%. The IC50 in data set [3] was 2.4 ± 1.01 µM.

`O=C(O)c1cc2cc(Cc3cccnc3)ccc2o1` [furegrelate]: in the data set with TXB2 formation (Oryctolagus cuniculus, Platelet, 0.1 h, 300 μM, read-out: percent inhibition of TXB2 formation), the inhibition at 300 µM turned out to be 96.49 ± 0.78%. Besides, the “PGE2 formation in the presence of AA” value in the data set on PGE2 formation (300 μM) is recorded as “reversely enhanced”.
